Test results taken from publication PMC11390765 (Cancer Chemotherapy and Pharmacology, 2024).
Several values for one entry are separate records, joined by “and”; a condition that tells them apart may be missing. Identical values can stand only once. Marks after values point to notes of the source that are not given here.

Columns and labels:
[1] = Safety and tolerability (adverse events, CTCAE v5.0; full analysis set); format: in vivo, human; conditions: period 1, day 1 cycle 1, midazolam only 1 mg, N=21
Procedure: Safety and tolerability were evaluated in terms of AEs, which were classified and graded according to the National Cancer Institute (NCI) Common Terminology Criteria for Adverse Events (CTCAE) v5.0; vital signs; 12-lead electrocardiogram (ECG); and clinical laboratory assessments, including clinical chemistry and hematology parameters, urinalysis, HbA1c levels, and lipid profiles.
Efficacy analyses were also performed on the full analysis set. Summary and/or descriptive statistics were used to analyze baseline demographic, safety, and efficacy data; PFS and DoR were estimated using Kaplan–Meier methodology.

[2] = Midazolam plasma pharmacokinetics with or without capivasertib (part A); conditions: for AUC(0-inf): AUCinf; for tmax: median (range); for half-life: t½λz
[3] = Plasma pharmacokinetics of capivasertib and its glucuronide metabolite; format: in vivo, human
[4] = test system: CYP; design: method as in unpublished data; conditions: ref unpublished data; cited from earlier work
[5] = human, plasma, oral, geometric mean (gCV%), day 8 of cycle 1, midazolam 1 mg on 3rd day off capivasertib 400 mg BID, N = 16
[6] = human, plasma, oral, geometric mean (gCV%), day 12 of cycle 1, midazolam 1 mg on 4th day on capivasertib 400 mg BID, N = 15
[7] = human, plasma, po, 1 mg, geometric mean (gCV%), day 1 of cycle 1, midazolam alone, single oral 1 mg, N = 18

Cc1ncc2n1-c1ccc(Cl)cc1C(c1ccccc1F)=NC2 [midazolam, reference compound]
39.5 ng·h/mL: AUC(0-inf) [2, 6]
3 (14.3) n (%): Any AE, any grade [1]
~0.5 h: tmax ([2]; human, plasma, oral, day 8 of cycle 1, midazolam 1 mg on 3rd day off capivasertib 400 mg BID, N = 16) | tmax ([2]; human, plasma, oral, day 12 of cycle 1, midazolam 1 mg on 4th day on capivasertib 400 mg BID, N = 15) | tmax ([2]; human, plasma, po, 1 mg, day 1 of cycle 1, midazolam alone, single oral 1 mg, N = 18)
22.4 ng·h/mL: AUC(0-t) ([2]; human, plasma, po, 1 mg)
24.49^b (45.3) h*ng/mL: AUClast ([2]; geometric mean (gCV%), day 8 of cycle 1, midazolam 1 mg on 3rd day off capivasertib 400 mg BID, N = 16)
7.23 h: half-life [2, 6]
9.83 ng/mL: Cmax ([2]; human, plasma, oral, Cmax, geometric mean (gCV%), day 12 of cycle 1, midazolam 1 mg on 4th day on capivasertib 400 mg BID, N = 15)
7.24 h: half-life [2, 7]
1 (4.8) n (%): Hyperglycemia, any grade [1]
8.52 h: half-life [2, 5]
8.55^a (39.6) ng/mL: Cmax ([2]; geometric mean (gCV%), day 1 of cycle 1, midazolam alone, single oral 1 mg, N = 18)
25 ng·h/mL: AUC(0-inf) [2, 7]
0 n (%): Abdominal pain, any grade [1] | Abdominal pain, grade ≥ 3 [1] | Anemia, any grade [1] | Anemia, grade ≥ 3 [1] | Any AE, grade ≥ 3 [1] | Asthenia, any grade [1] | Asthenia, grade ≥ 3 [1] | Blood alkaline phosphatase increased, any grade [1] | Blood alkaline phosphatase increased, grade ≥ 3 [1] | Blood bilirubin increased, any grade [1] | Blood bilirubin increased, grade ≥ 3 [1] | Blood creatinine increased, any grade [1] | Blood creatinine increased, grade ≥ 3 [1] | COVID-19, any grade [1] | COVID-19, grade ≥ 3 [1] | Decreased appetite, any grade [1] | Decreased appetite, grade ≥ 3 [1] | Diarrhea, any grade [1] | Diarrhea, grade ≥ 3 [1] | Fatigue, any grade [1] | Fatigue, grade ≥ 3 [1] | Gamma-glutamyl transferase increased, any grade [1] | Gamma-glutamyl transferase increased, grade ≥ 3 [1] | Hyperglycemia, grade ≥ 3 [1] | Hypoalbuminemia, any grade [1] | Hypoalbuminemia, grade ≥ 3 [1] | Hypokalemia, any grade [1] | Hypokalemia, grade ≥ 3 [1] | Hyponatremia, any grade [1] | Hyponatremia, grade ≥ 3 [1] | Hypotension, any grade [1] | Hypotension, grade ≥ 3 [1] | Large intestinal obstruction, any grade [1] | Large intestinal obstruction, grade ≥ 3 [1] | Lymphocyte count decreased, any grade [1] | Lymphocyte count decreased, grade ≥ 3 [1] | Nausea, any grade [1] | Nausea, grade ≥ 3 [1] | Rash (group term), any grade [1] | Rash (group term), grade ≥ 3 [1] | Sepsis, any grade [1] | Sepsis, grade ≥ 3 [1] | Thrombocytopenia, any grade [1] | Thrombocytopenia, grade ≥ 3 [1] | Ureteric obstruction, any grade [1] | Ureteric obstruction, grade ≥ 3 [1] | Urticaria, any grade [1] | Urticaria, grade ≥ 3 [1]
28.3 ng·h/mL: AUC(0-inf) [2, 5]
9.9 ng/mL: Cmax ([2]; human, plasma, oral, Cmax, geometric mean (gCV%), day 8 of cycle 1, midazolam 1 mg on 3rd day off capivasertib 400 mg BID, N = 16)

NC1(C(=O)N[C@@H](CCO[C@@H]2O[C@H](C(=O)O)[C@@H](O)[C@H](O)[C@H]2O)c2ccc(Cl)cc2)CCN(c2ncnc3[nH]ccc23)CC1 [AZ14102143]
2.03^a (0.6–7.6) h: tmax ([3]; median (range), day 12 of cycle 1, capivasertib 400 mg BID)
11,220 ng/mL: Cmax ([3]; geometric mean (gCV%), day 12 of cycle 1, 4th day on capivasertib 400 mg BID, with single oral midazolam 1 mg)
3.40 h: t½λz ([3]; geometric mean (gCV%), day 12 of cycle 1, capivasertib 400 mg BID)
little or no CYP inhibition: CYP inhibition in vitro [4]
2575 ng/mL and 2575^f (106.9) ng/mL: Ctrough cycle 1, day 13 ([3]; geometric mean (gCV%), 12 h post day 12 capivasertib evening dose)
45.22 ng/mL and 45.22^e (242.1) ng/mL: Ctrough cycle 1, day 9 ([3]; geometric mean (gCV%), after 3 off-capivasertib-dosing days)
68,810 h*ng/mL: AUCτ ([3]; geometric mean (gCV%), 12-h dosing interval, day 12 of cycle 1, capivasertib 400 mg BID)
